According to patent publication US20240131022A1 (published 2024):

Key:
[1] = Stability in brain homogenate; details: within the time frame of the study
[2] = biological target: δ-receptor (Homo sapiens, UniProt P41143); assay: Functional profile in CHO transfected cells, δ-receptor inhibition; format: cell-based
[3] = biological target: μ-receptor (Homo sapiens, UniProt P35372); assay: cell-based
[4] = biological target: k-receptor (Homo sapiens, UniProt P41145); assay: cell-based; details: read-out: k-receptor activation (IC50 or %)
k-receptor, sequence (P41145 whole entry): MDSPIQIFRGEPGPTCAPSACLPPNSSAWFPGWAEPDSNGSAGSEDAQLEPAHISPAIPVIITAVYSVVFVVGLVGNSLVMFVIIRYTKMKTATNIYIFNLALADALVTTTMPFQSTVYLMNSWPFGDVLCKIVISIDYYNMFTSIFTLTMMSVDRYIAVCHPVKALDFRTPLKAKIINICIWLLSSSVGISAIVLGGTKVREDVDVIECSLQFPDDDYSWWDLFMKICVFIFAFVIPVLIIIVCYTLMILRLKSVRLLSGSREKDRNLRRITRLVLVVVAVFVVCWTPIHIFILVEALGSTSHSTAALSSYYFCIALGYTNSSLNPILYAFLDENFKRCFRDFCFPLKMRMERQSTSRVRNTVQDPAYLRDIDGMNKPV

δ-receptor, sequence (P41143 whole entry): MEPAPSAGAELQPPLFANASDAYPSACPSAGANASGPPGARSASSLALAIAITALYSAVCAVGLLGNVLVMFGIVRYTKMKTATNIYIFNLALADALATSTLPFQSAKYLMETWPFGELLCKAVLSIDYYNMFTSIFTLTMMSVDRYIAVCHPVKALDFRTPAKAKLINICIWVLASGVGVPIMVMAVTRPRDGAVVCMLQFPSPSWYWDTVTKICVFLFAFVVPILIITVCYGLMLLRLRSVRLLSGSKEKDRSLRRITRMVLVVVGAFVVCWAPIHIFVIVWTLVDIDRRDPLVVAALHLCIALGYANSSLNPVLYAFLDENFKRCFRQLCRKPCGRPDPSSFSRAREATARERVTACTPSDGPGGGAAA
μ-receptor, sequence (P35372 whole entry): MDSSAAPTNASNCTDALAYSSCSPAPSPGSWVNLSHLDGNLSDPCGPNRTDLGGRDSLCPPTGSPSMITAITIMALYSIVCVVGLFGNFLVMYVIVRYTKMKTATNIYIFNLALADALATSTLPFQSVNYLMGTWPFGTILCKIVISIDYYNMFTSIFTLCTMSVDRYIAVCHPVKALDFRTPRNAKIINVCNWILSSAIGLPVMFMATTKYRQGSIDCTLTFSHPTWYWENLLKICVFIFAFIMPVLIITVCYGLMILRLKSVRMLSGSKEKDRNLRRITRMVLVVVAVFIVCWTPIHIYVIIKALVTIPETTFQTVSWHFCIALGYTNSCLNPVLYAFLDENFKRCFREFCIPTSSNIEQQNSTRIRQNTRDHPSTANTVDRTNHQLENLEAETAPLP

| Structure (SMILES) | intact in brain homogenate [1] [%] | IC50 [2] [µM] | IC50 [3] [nM] | activation at 1 µM [4] [%] | inhibition at 1 µM ([3]; read-out: μ-receptor inhibition (IC50 or %)) [%] |
| --- | --- | --- | --- | --- | --- |
| C=CCN1CCC23c4c5ccc(OC(=O)/C=C/C=C/C)c4OC2C(=O)CCC3(O)C1C5 (stereo not shown) [NX90, 3-hexadienoate derivative of naloxone] | 85±13 | > 10 | 137 ± 12 | – | – |
| C/C=C/C=C/C(=O)Oc1ccc2c3c1OC1C(O)CCC4(O)C(C2)N(CC2CCC2)CCC314 (stereo not shown) [NB33, 3-hexadienoate derivative of nalbuphine] | 65±6 | > 10 | – | 22.3 | 82.8 |
